# In article PMC6443933, “Antagonizing Retinoic Acid-Related-Orphan Receptor Gamma Activity Blocks the T Helper 17/Interleukin-17 Pathway Leading to Attenuated Pro-inflammatory Human Keratinocyte and Skin Responses” (Frontiers in Immunology, 2019):
# Experiments:
# [1] = system: T1, RORγt binding to RORE DNA binding sites; assay: RORE oligonucleotide pull-down assay; format: cell-based, human; details: 10 μM, HUT78-RORγt nuclear extracts, anti-CD3/PMA 2 h, vs DMSO
# T1 construct: HUT78 T-cells stably expressing full-length eGFP-RORγt; eGFP; expressed in transfected cells
# Description: In order to detect RORγt binding to its cognate DNA binding sites, biotinylated oligonucleotide probes containing putative 4 × RORE or mutated-RORE DNA sequences were synthesized (Microsynth, Switzerland) and annealed in order to form a double stranded DNA probe. The probes contained the following sequences (where the bold nucleotides represent a putative RORγt binding site or the mutated form of the RORE):
# Nuclear extracts originating from HUT78 cells stably expressing eGFP-RORγt were prepared as previously described ([45]). Briefly, cells were incubated with Cpd A (10 μM final concentration) for 0.5 h followed by a 2 h-stimulation period using CD3 antibody (2.5 μg/ml, clone OKT-3, BioXcell) plus PMA (8 ng/ml, Sigma). Nuclear lysates were generated using a nuclear extraction kit (Pierce, Thermo scientific), followed by a pre-clearing step with streptavidin-sepharose beads (GE healthcare Amersham) for 1 h at 4°C. The supernatants were incubated with biotinylated double-stranded RORE or with mutated RORE probes (10 nM final concentration) for 1 h at 4°C, followed by addition of a 50% slurry of streptavidin-sepharose beads for 1 h. The bound complexes were washed five times with 1 ml buffer consisting of 50 mM Tris-HCl, 1 mM EDTA, 1% NP-40, 150 mM NaCl and protease inhibitors (Roche). […]
# [2] = system: STAT3 phosphorylation in Ba/F3 cells stably expressing the human IL-21 receptor; assay: IL-21-induced phospho-STAT3 by flow cytometry; format: cell-based; details: 10 μM, 1 h pre-incubation, vs DMSO
# Description: To assess whether Cpd A affected STAT3 activity we induced STAT3 phosphorylation in Ba/F3 cells stably expressing the human IL-21 receptor (kindly provided by Dr. Max Warncke, Novartis). Cells were pre-incubated for 1 h with 10 μM of Cpd A or with 1 μM of the pan-JAK inhibitor CP690550. To induce STAT3 activity, the cells were stimulated for 1.5 h with recombinant human IL-21 (3 nM), followed by two washing steps using buffer containing PBS/0.5% BSA. The cells were fixed with 2% paraformaldehyde for 15 min at room temperature, washed and resuspended in ice-cold 90% methanol solution and stored overnight at −20°C. The samples were washed and stained for 1 h with an Alexa 647-labeled anti-phospho (pY705)-STAT3 antibody (BD biosciences). After two washes the cells were analyzed using a LSR Fortessa (BD Bioscience) and analyzed using FlowJo software (Tree Star).
# naive human CD4+ T-cells = assay: Th17 polarization of naive CD4+ T-cells, IL-17A ELISA; format: cell-based; details: T-cell, 168 h, Th17 differentiation 7 days, read-out: IC50, IL-17A secretion
# Description: Total, naive and memory CD4^+ T cells were isolated from Peripheral blood mononuclear cells (PBMCs) from healthy volunteers by density gradient centrifugation using Ficoll Paque (GE). Total, naive or memory CD4^+ T-cells were prepared by immunomagnetic separation using the respective CD4^+ T-cell enrichment kits resulting in untouched highly purified subsets (EasySep™, Stem Cell). Purity was assessed by flow cytometry and was between 95 and 98% for the total CD4^+ T-cells. The purity of naive (CD45RA^+CD45RO^−) and memory (CD45RA^−CD45RO^+) CD4^+T-cells ranged between 95 and 98%, respectively. For T-cell stimulation experiments, cells were treated as previously published ([44]). Briefly, T-cells were stimulated with plate-bound monoclonal antibodies against CD3 (1 μg/ml, clone OKT-3, BioXcell) and CD28 (1 μg/ml, clone CD28.2, BioLegend). For Th17 polarization assays, IL-6 (20 ng/ml), TGF-β1 (5 ng/ml), IL-1β (10 ng/ml), and IL-23 (10 ng/ml) were added. For Th1 polarization assays, IL-12 (10 ng/ml) and anti-IL-4 antibody (5 μg/ml), for Th2 polarizations, IL-4 (10 ng/ml) and anti-IFN-γ antibody (5 μg/ml) were added. For Th0 polarization assays, cells were only stimulated with CD3 and CD28 antibodies. […] Cytokine concentrations were quantified by ELISA according to the manufacturer's instructions (eBioscience or BioLegend).
compound,measurement,setting,value
"Cc1ccc(C(=O)Nc2cn3ccnc3c(CN3CCN(c4noc(C(C)(C)C)n4)[C@@H](C)C3)c2C)cn1 [Cpd A, (S)-N-(8-((4-(5-(tert-butyl)-1,2,4-oxadiazol-3-yl)-3-methylpiperazin-1-yl)methyl)-7-methylimidazo[1,2-a]pyridin-6-yl)-6-methylnicotinamide]",RORγt association with the ROR elements,[1],still intact
same,IL-21-induced STAT3 phosphorylation (pY705),[2],did not affect
same,IC50,naive human CD4+ T-cells,15 nM
